Results on 88 molecules are retold here after a melting point compilation (Tetko et al.; mined from patent text by program, amines drawn as free bases though some values may be those of a salt).

Where only a bound is given, the exact number is not on record here.

Consider `CCc1ccc(OCCCCCN2CCN(c3nccs3)CC2)cc1`, for which the melting point (usually the temperature, or range, at which the solid turns liquid) lay within 125 to 127 °C.

On to `CCOC(=O)C(C(=O)NCc1ccccc1)=C1SC=CS1`, for which the melting point is 79 to 81 °C.

Consider `O=C(CNc1ccc2[nH]c(=O)oc2c1)N1CCC(Cc2ccc(F)cc2)CC1`, for which the melting point lay within 202 to 205 °C.

Take `O=C(Nc1nccs1)c1c(C(F)(F)F)nc2ccccc2c1O`: the melting point is over 280 °C.

For `COc1cccc(C(=O)NC2(C(=O)N(C)OC)CC2)c1C`, the melting point is 173 to 175 °C.

With `Cc1c(CC(=O)O)c2cc(O)ccc2n1C(=O)c1cccc(Cl)c1`, the melting point was in the range of 158 to 160 °C.

In turn, `CS(=O)(=O)c1ccc2c(c1)[nH]c(=O)c(=O)n2C1CCCCC1` registered a melting point of over 300 °C.

`CN1CCCC1CCNNC(=O)N1CCC(c2[nH]nc3c2C(=O)c2c(NC(=O)NN4CCOCC4)cccc2-3)CC1` (stereo not drawn) showed a melting point of 91 to 93 °C.

As for `Cc1ccc(-c2nc(-c3ccc(C)cc3C)nc(-c3ccc(OCC(=O)OC4CC(C)(C)N(OC5CCCCC5)C(C)(C)C4)cc3O)n2)c(C)c1`, the melting point is 105 to 109 °C.

Molecule `CNC1=NS(=O)(=O)N=C1NCCCOc1cccc(CN2CCCCC2)c1` displayed a melting point of 182 to 184 °C.

As for `CC1(C)CN(C(=O)Nc2cccnc2)c2cc(C#N)ccc21`, the melting point lay in the range of 220 to 222 °C.

As for `COC(=O)N1CCC(c2nn(-c3ccc(F)cc3)c3ccccc23)CC1`, the melting point lay within 95 to 97 °C.

In turn, `COCOc1cc(OC)ccc1C(=O)O` displayed a melting point of 96 to 97 °C.

Molecule `CC(=O)N1CCN(CC(=O)OC2c3ccccc3C(=O)N2c2ccc3ccc(Cl)nc3n2)CC1` (stereo not drawn) displayed a melting point of 192 °C.

In turn, `COc1cccc(CNC(=O)c2cc3c(=O)n(CCOc4ccc(Br)cc4)c(=O)n(C)c3s2)c1` came in with a melting point of 165 to 167 °C.

Consider `COC(=O)[C@@H]1[C@H](NCc2cc(OC(F)(F)F)ccc2OC)[C@H](c2ccccc2)N[C@@H]1C` (relative stereo), for which the melting point was in the range of 81 to 82 °C.

In turn, `COc1c(O)cccc1C(=O)C1CCN(CCc2ccc(F)cc2)CC1` yielded a melting point of 100 to 101 °C.

Molecule `CC(C)Cn1nnc2c3ncnc-3c3ccncc3n21` registered a melting point of 181 to 182 °C.

`CC(=O)Nc1ccc(C(=O)CBr)cc1F` showed a melting point of 184 °C.

Turning to `COC(=O)CCc1cc2cc(C(F)(F)F)ccc2n1S(=O)(=O)c1ccc2nc(N)sc2c1`, the melting point lay in the range of 135 to 136 °C.

Molecule `CCn1c(C)c(C2(N(c3ccccc3)c3ccccc3)OCc3cccnc32)c2ccccc21` (stereo not drawn) returned a melting point of 132 to 136 °C.

As for `CCCCCCCCOc1ccc(-c2ccc(O)c(F)c2F)cc1`, the melting point is 145 °C.

As to `CC(C)(C)C(=O)c1oc(N)nc1C(C)(C)C`, the melting point was 248 to 250 °C.

In the case of `CC(C)Cn1c(CNC(=O)OC(C)(C)C)c(-c2cccs2)c2cc(O)ccc2c1=O`, the melting point lay within 216 to 217 °C.

As for `CCc1ccc2c(=O)c3ccccc3ccc2c1`, the melting point is 62 to 64 °C.

Regarding `CC(OC1(c2ccccc2F)NOc2c(Cl)cccc21)C(=O)O` (stereo not drawn), the melting point fell in the range of 159 to 161 °C.

`O=C(c1ccc(OCC2CO2)cc1)c1cccc2[nH]ccc12` (stereo not drawn) returned a melting point of 96 °C.

`COC(=O)COc1ccc(C(=O)CN(C)C(=O)c2ccc(C(=N)N)cc2)cc1OCC(=O)OC` gave a melting point of 177 to 178 °C.

As to `Cc1nc2ccc3nc(O)c(O)nc3c2nc1C`, the melting point was over 300 °C.

On to `CCCc1c(OCCCCCCc2cccc(OCCCCCC(=O)O)c2CCC(=O)O)ccc2c1CCCC2=O`, for which the melting point was in the range of 100 to 101 °C.

`CCCCn1c(C)c(C)cc(O)c1=O` registered a melting point of 112 to 116 °C.

Molecule `C/C(=C(\C#N)C(N)=S)N1CCCN(c2cccc([N+](=O)[O-])c2)CC1` showed a melting point of 157 to 158 °C.

As for `COc1ccc(CNc2c(OCCC(O)c3ccc(Cl)cc3)n[nH]c(=O)c2Br)cc1OC` (stereo not drawn), the melting point fell in the range of 190 to 196 °C.

For `COC(=O)CN1C(=O)CN=C(c2ccccc2)c2cc(Cl)ccc21`, the melting point fell in the range of 137 to 138 °C.

The molecule `Cc1c(NC(=O)OCc2ccccc2)cccc1C(C[N+](=O)[O-])c1c[nH]c2ccc(N3CCOCC3)cc12` (stereo not drawn) registered a melting point of 140 °C.

Molecule `CC(C)NS(=O)(=O)Oc1ccc(F)cc1` registered a melting point of 145 to 146 °C.

On to `CCOC(CNN)OCC`, for which the melting point lay within 126 to 127 °C.

In turn, `COc1cc2ncc(C#N)c(Nc3ccc4sc(C)nc4c3)c2cc1OC` displayed a melting point of 118 to 120 °C.

Molecule `CS(=O)(=O)c1ccc(-c2cc(C(=O)CCCO)nn2-c2ccc(F)cc2)cc1` returned a melting point of 164 to 166 °C.

For the molecule `O=C(O)CCC(=O)N[C@@H](Cc1ccc(-c2ccccc2)cc1)C(=O)NCCCCNc1ncccn1`, the melting point lay within 200 to 205 °C.

In turn, `CNC(=O)c1sc2cnccc2c1Oc1ccc(COC)cc1` had a melting point of 163 to 164 °C.

As for `CCCCCCCCCCCCCCOc1ccc(C(=O)Nc2ccc(CO)cc2)cc1`, the melting point was 140 to 145 °C.

Molecule `COc1ccccc1Oc1c(N=[N+]=[N-])nc(-c2ncccn2)nc1C(=O)OCCO` displayed a melting point of 133 to 134 °C.

For the molecule `C=Cc1nc2cc(-c3ccc(C#N)cc3)ccc2o1`, the melting point lay within 143 to 144 °C.

Consider `O=S(=O)(O)NCCC(F)(F)F`, for which the melting point is over 250 °C.

`CN(c1ccc(C(=O)O)cc1)c1cc2c3c(c1)CCCC3(C)CCC2` displayed a melting point of 257 to 258 °C.

Molecule `N=C(Nc1ccc(NC(=O)CNCc2ccccc2)cc1)c1cccs1` registered a melting point of 161 to 163 °C.

`Cc1ccc(S(=O)(=O)Nc2cnc(C3OCCO3)cc2C)cc1` had a melting point of 155 to 156 °C.

Regarding `O=C(COc1cc(-c2ccccc2)nc2ccccc12)N1CCOCC1`, the melting point was 145 °C.

In turn, `Cc1cc(OCc2ccccc2)cc(OCCCC(C)C)c1C(=O)O` registered a melting point of 83 to 85 °C.

Take `CC1Nc2cc(-c3ccc(Cl)cc3)ccc2NC1=O` (stereo not drawn): the melting point was in the range of 228 to 230 °C.

Take `Cc1c2c(c(C(C)c3ccc(C(C)C)cc3)c(C)c1NC(=O)CC(C)(C)C)OCC2` (stereo not drawn): the melting point was 189 to 190 °C.

Regarding `O=C1CCC(N2C(=O)c3cccc(NCc4cccc(Cl)c4)c3C2=O)C(=O)N1` (stereo not drawn), the melting point fell in the range of 207 to 209 °C.

The molecule `CC(C(=O)O)c1ccc2cc(OCc3ccc4ccccc4c3)ccc2c1` (stereo not drawn) had a melting point of 216 to 218 °C.

For `CCOc1ccc2c(c1)CCc1c(C#N)cccc1S2`, the melting point is 124 to 126 °C.

In the case of `OCCC(c1ccccc1)(c1ccccc1)c1ccccc1`, the melting point is 103 to 106 °C.

On to `CCOC(=O)Cc1ccc(CCNS(=O)(=O)c2ccc(Cl)cc2)cc1`, for which the melting point was in the range of 88 to 90 °C.

For the molecule `CC(C)c1nc2c(N)nc(-c3ccncc3)nc2[nH]1`, the melting point lay within 269 to 272 °C.

`CCOC(=O)/C=C/c1cnn(C)c1C` yielded a melting point of 82 to 83 °C.

For the molecule `CC(=O)N(C)c1ccc(-c2ccnc3c(C(=O)c4ccco4)cnn23)cc1`, the melting point lay in the range of 202 to 204 °C.

`CC(C)Nc1nc2cc(F)c(Cl)cc2n1[C@@H]1O[C@H](C)[C@@H](O)[C@H]1O` registered a melting point of 97 to 99 °C.

Take `CC(C)(C)OC(=O)NC(CC(=O)OCc1ccccc1)C(=O)C(C#N)=P(c1ccccc1)(c1ccccc1)c1ccccc1` (stereo not drawn): the melting point fell in the range of 42 to 44 °C.

The molecule `CCN(CC)c1ccc(N(c2ccc(N(C)C)cc2)C2(c3ccc(N(CC)CC)cc3C)OC(=O)c3ccccc32)cc1` (stereo not drawn) registered a melting point of 68 to 83 °C.

`CCOC(=O)c1cc2ccccc2n(C(C)C)c1=O` yielded a melting point of 54 to 57 °C.

`COC(c1c(Cl)sc(Cl)c1Cl)C(C)N(OC)C(=O)c1cn(C)nc1C(F)F` (stereo not drawn) had a melting point of 113 to 116 °C.

The molecule `COc1cccc(N(C)c2nc(N)nc3[nH]c4ccccc4c23)c1` gave a melting point of 245 to 246 °C.

Consider `O=C1CCC(c2ccc(-c3ccccc3F)cc2)O1` (stereo not drawn), for which the melting point lay in the range of 74 to 75 °C.

Turning to `N#Cc1cc(-c2c3ccccc3cc3sc4ccccc4c23)ccc1O`, the melting point lay in the range of 231 to 232 °C.

Consider `CN(C)c1ccc(C=CC(=O)c2ccc3c(c2)CCCC3)cc1`, for which the melting point fell in the range of 134 to 135 °C.

In turn, `O=C(O)CCCc1cccc2c1OC=CO2` yielded a melting point of 75 to 76 °C.

As for `COc1ccc([N+](=O)[O-])c(Nc2ccc3cn[nH]c3c2)n1`, the melting point was 261 to 264 °C.

Molecule `O=C(Nc1ccc2[nH]c(=O)oc2c1)C(=O)N1CCC(Cc2cccc(F)c2)CC1` yielded a melting point of 215 to 217 °C.

`COC(=O)CC(=O)Nc1cccc(S)c1` returned a melting point of 52 to 54 °C.

Turning to `CCC(C)NC(=O)Nc1ccccc1C(=O)OC` (stereo not drawn), the melting point worked out at 124 °C.

On to `COc1cc(CN2CCN(C(=O)c3ccc4c(c3)C(=O)C3(CC3)O4)CC2)cc(OC)c1OC`, for which the melting point was 196 to 198 °C.

Regarding `COc1cccc2c1cc(C)n2Cc1c(Cl)cccc1Cl`, the melting point was 154 to 157 °C.

For the molecule `O=C(CNC(=O)C(Cc1ccccc1)C(=O)NOCc1ccccc1)OCc1ccccc1` (stereo not drawn), the melting point was 70 °C.

`CC(C)c1c(C=O)c(-c2ccccc2)c2c3ccccc3ccn12`: the melting point fell in the range of 134 to 136 °C.

Turning to `CCCCCCCc1ccc(-c2ccc(OC)cc2)nc1`, the melting point is 54.4 to 56.5 °C.

In turn, `Cc1ncc(CN2C(=O)c3ccccc3C2=O)n1-c1ccc(Cl)cc1Cc1ccccc1F` came in with a melting point of 152 to 156 °C.

Molecule `C=CCC1(c2ccc(Br)cc2)C2CCC(C(=O)C2)C1Nc1ccc(OC)cc1` (stereo not drawn) came in with a melting point of 68 to 69 °C.

Regarding `COC(=O)[C@@H](Cc1ccccc1)Oc1c(Br)cc(-c2c3ccccc3c(Br)c3sc4ccccc4c23)cc1Br`, the melting point was in the range of 138 to 140 °C.

`CCCCCc1ccc(C(N)C(=O)O)[nH]1` (stereo not drawn) had a melting point of 190 to 195 °C.

In turn, `CC1(N)CCC(=O)N(C(=O)OCc2ccccc2)C1=O` (stereo not drawn) returned a melting point of 150 to 152 °C.

In the case of `CCCCCCCCc1ccc(OCC(=O)Cn2ccc3cc(C(=O)O)ccc32)cc1`, the melting point is 122 to 124 °C.

The molecule `N#CC(=C(Cl)c1ccc(Br)cc1)c1ccccc1` showed a melting point of 128 to 130 °C.

Take `CC1(C)C(C)(C)C1(Cl)c1ccccn1`: the melting point is 100 to 102 °C.

Consider `Nc1nc(Oc2ccc(C(F)(F)F)cc2Cl)ccc1[N+](=O)[O-]`, for which the melting point is 80 to 84 °C.
